Source: ChEMBL document CHEMBL1909526, “Berkeleyones and related meroterpenes from a deep water acid mine waste fungus that inhibit the production of interleukin 1-β from induced inflammasomes” (J Nat Prod, 2011)

Key:
[1] = target: T1, Caspase-1 (Homo sapiens) (UniProt P29466); assay: Inhibition of caspase1 in differentiated human THP-1 cells at 100 ug/ml after 24 hrs by fluorometric assay; assay type: cell-based
T1 sequence (whole entry): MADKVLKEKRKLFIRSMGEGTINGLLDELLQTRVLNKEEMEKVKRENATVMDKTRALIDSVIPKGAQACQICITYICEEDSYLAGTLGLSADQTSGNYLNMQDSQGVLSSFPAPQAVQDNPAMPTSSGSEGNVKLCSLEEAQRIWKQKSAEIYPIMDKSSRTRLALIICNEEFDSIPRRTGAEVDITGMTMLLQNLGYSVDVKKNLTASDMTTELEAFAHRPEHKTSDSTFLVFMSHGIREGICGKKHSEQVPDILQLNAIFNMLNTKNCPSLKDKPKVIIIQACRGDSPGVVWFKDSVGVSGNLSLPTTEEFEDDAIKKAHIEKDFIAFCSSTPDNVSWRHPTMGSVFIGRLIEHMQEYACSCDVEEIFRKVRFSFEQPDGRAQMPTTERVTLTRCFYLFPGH

[2] = target: T1, Caspase-1 (Homo sapiens); assay: Inhibition of caspase1 in differentiated human THP-1 cells at 0.0005 ug/ml after 24 hrs by fluorometric assay; assay type: cell-based

| Structure (SMILES) | inhibition [1] | inhibition [2] |
| --- | --- | --- |
| C=C(C)C1=CC[C@@]2(C)[C@@H](C[C@]3(C)C(=C)[C@@]2(C(=O)OC)C(=O)[C@@](C)(O)C3=O)[C@]1(C)CCC(=O)O | 0% | – |
| C=C1[C@@]2(C)C[C@H]3[C@]4(C)CCC(=O)OC(C)(C)[C@@H]4CC[C@]3(C)[C@]1(C(=O)OC)C(=O)[C@@](C)(O)C2=O | 77% | – |
| C=C1[C@@]2(C)C[C@H]3C(C)=C4CC(=O)OC(C)(C)C4=CC[C@]3(C)[C@]1(C(=O)OC)C(=O)[C@@](C)(O)C2=O | 89% | – |
| CC(=O)N[C@@H](Cc1ccc(O)cc1)C(=O)N[C@H](C(=O)N[C@@H](C)C(=O)N[C@H](C=O)CC(=O)O)C(C)C | – | 100% |

More lines, now with the values ahead:

| inhibition [1] | inhibition [2] | Structure (SMILES) |
| --- | --- | --- |
| 97% | – | C=C1[C@@]2(C)C[C@H]3[C@]4(C)CCC(=O)C(C)(C)[C@H]4CC[C@]3(C)[C@]1(C(=O)OC)C(=O)[C@@](C)(O)C2=O |
| 68% | – | C=C1[C@@]2(C)C[C@H]3[C@]4(C)CC[C@@H](O)C(C)(C)[C@H]4CC[C@]3(C)[C@]1(C(=O)OC)C(=O)[C@@](C)(O)C2=O |
| 100% | – | C=C1[C@@]2(C)C[C@@H]3[C@](C)(CC=C4C(C)(C)OC(=O)CC[C@]43C)[C@]1(C(=O)OC)C(=O)[C@@](C)(O)C2=O |
